Results filed as inconclusive are left out. The source made the active and inactive calls. The rule behind the calls is not given here.

What is called AC50 is the concentration giving half of the maximal activity seen.

For this assay, the system named is EBV lymphoblastoid cells (LCL) viability, plate reader. Description: LCL viability reduction – cell-based, plate reader, cherry-picks, set 2, cytotoxicity control, dose response (AID 504882).
In the case of `CCC(=O)NC(c1cc(Cl)c2cccnc2c1O)C(C)C` (stereo not drawn), the AC50 was 6.78 µM. Under `Oc1c(N=NC(=S)Nc2ccccc2F)c2ccccc2n1Cc1cccc(Cl)c1` stands > 19.5 µM (inactive); under `COc1ccc(-c2ccc(NC(=O)c3ccco3)cc2)nn1`, 4.42 µM. To `Cc1ccc(C(=O)Nc2sc(Cc3ccc4c(c3)OCO4)c(C)c2C(N)=O)cc1` belongs 19.2 µM; to `C=CC(=O)OCCOCCOCCOCCOC(=O)C=C`, 16.9 µM. To `O=C(Nc1ccc(N2CCOCC2)cc1)c1cn2ccccc2n1` belongs 10.9 µM; to `C#CCN(C[C@@H]1[C@@H](OC(=O)NCC2CCCCC2)[C@@H](OC(=O)NCC2CCCCC2)Cn2c(=O)ccc(=O)n21)S(=O)(=O)c1ccc(C)cc1`, 3.84 µM. Regarding `CCOC(=O)c1c2c(n(C)c1C)C(=O)C(=O)c1ccc(Br)cc1-2`, the AC50 is 1.95 µM.

Turning to `CC(=NNc1nc2ccccc2o1)c1cc2ccccc2cn1`, the half-maximal activity concentration (AC50) is 0.154 µM. For `COc1ccccc1-c1nc(-c2ccccn2)no1`, the AC50 is 10.8 µM.

`O=C(N/N=C/c1ccc[nH]1)c1ccc(COc2cccc3cccnc23)cc1`: the AC50 is 4.93 µM.

On to `CCNc1ccc(Br)cc(C(=O)/C=C/c2ccccc2Cl)c1=O`, for which the AC50 is 15.3 µM. Under `COc1cccc(/C=N/Nc2nc3ccccc3[nH]2)c1O` stands 4.42 µM; under `Cc1ccc2[nH]c3c(c2c1)CCCC3NC(=O)CCl` (stereo not drawn), 1.41 µM; under `Oc1cccc2ccc(Nc3ccccn3)nc12`, 6.35 µM.

Regarding `CCCCC(=O)NC(c1ccc(Cl)cc1Cl)c1ccc2cccnc2c1O` (stereo not drawn), the AC50 is 2.55 µM. Regarding `CCOc1ccc(/C=C/[N+](=O)[O-])c2ccccc12`, the AC50 is 1.92 µM. Under `CCOc1ccc(C(=O)Nc2cc(C)ccn2)cc1` stands 9.64 µM; under `CC(=O)NC(c1cccs1)c1cc(F)c2cccnc2c1O` (stereo not drawn), 6.96 µM. On to `CCN(CC)S(=O)(=O)c1ccc(N/N=C/c2ccc(O)cc2O)nc1`, for which the AC50 is 3.31 µM. To `C/C(=N/NC(=O)c1ccc(C(C)(C)C)cc1)c1ccccn1` belongs 1.05 µM. For `CS(=O)(=O)c1ncc(Cl)c(C(=O)Nc2ccc(OC(F)F)cc2)n1`, the AC50 was 4.53 µM. Regarding `O=c1c2c(nc3c(-c4ccc(Cl)cc4)c[nH]n13)CCCC2`, the AC50 is 2.44 µM. Under `CCc1cc(C(=O)Nc2ncccc2O)sc1C` stands > 19.5 µM (inactive).

Regarding `COc1ccc(C(=O)NC(=S)NNC(=O)c2ccc3ccccc3n2)cc1`, the AC50 was 3.69 µM.

In the case of `NC(=S)NN=Cc1nccc2c(C(F)(F)F)cccc12`, the AC50 was 1.15 µM. For the compound `CCN(CC)S(=O)(=O)c1cccc(NC(=O)Nc2cccc(C(F)(F)F)c2)c1`, the half-maximal activity concentration (AC50) was 9.7 µM. Under `COc1ccc(CNC(=O)N2[C@H]3CC[C@@H]2C=C(c2ccc(F)cc2OCc2ccccc2)C3)cc1OC` stands 2.3 µM; under `NC(=S)N/N=C/c1ncc(C(F)(F)F)cc1Cl`, 10.6 µM. To `CNc1cccnc1C=NNC(N)=S` belongs 7.97 µM.

`COc1ccc(-c2nnc(NC(=O)c3ccc(S(=O)(=O)N4CCCc5ccccc54)cc3)o2)cc1`: the AC50 was 15 µM. Under `COc1ccccc1[C@]1(C)ON(c2ccccc2C(F)(F)F)C1=O` stands 16.7 µM; under `O=[N+]([O-])c1ccc(O)c(/C=N/Nc2ncnc3c2cnn3-c2ccccc2)c1`, 4.55 µM. Consider `O=C(Nc1ccc(C(=O)N2CCOCC2)cc1)Nc1cccc(C(F)(F)F)c1`, for which the AC50 is > 19.5 µM (inactive). Under `O=C(NC(c1ccc(Cl)cc1)c1cc(Cl)c2cccnc2c1O)c1cccnc1` (stereo not drawn) stands 4.72 µM. Regarding `O=C(Oc1c(Cl)cc(Cl)c2cccnc12)c1cccc([N+](=O)[O-])c1`, the AC50 was 18.8 µM. Under `COc1cccc(N=Nc2ccc(O)c3ncccc23)c1` stands 2.18 µM; under `CC(=NNC(=S)Nc1ccccc1)c1ccccn1`, 0.068 µM.

The values are drawn from PubChem BioAssay AID504882 (Broad Institute, 2011).
